The IC50 is the concentration that inhibits the measured activity by half.

In the assay the target is Nonstructural protein 3 (Zika virus, UniProt A0A024AXB9). The experiment in a line: Functional biochemical assay to identify treatments for viral infectious disease that targets Zika NS2B-NS3 protease. Utilizing a direct enzyme activity measurement method, reading the fluorescence intensity is used to characterize the relative potency of inhibitors as IC50. The arrangement: species or system PRVABC59.

Values joined by “and” are separate entries in the source; they are usually repeats but may differ in a detail not shown here. Equal entries are not always repeated. A value given as a limit tells only on which side of the number the result lay.

Nonstructural protein 3, sequence (A0A024AXB9 whole entry): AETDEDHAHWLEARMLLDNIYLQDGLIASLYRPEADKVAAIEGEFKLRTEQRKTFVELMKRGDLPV

For `O=C(N[C@H](C(=O)NCc1cccc(CC(F)(F)F)c1)c1ccc(OCc2ccccc2)cc1)OCc1ccccc1`, the IC50 is > 99.5 µM. The same measure for `Cc1ccc([C@@H](NC(=O)OCc2ccccc2)C(=O)Nc2cccc(CN)c2)cc1C(F)(F)F`: 48.7 µM; for `CCn1c(=O)c(N2C[C@@H](CO)[C@H](c3cncn3C)C2)nc2ccccc21`: > 99.5 µM. As for `NC(=O)c1cccnc1N1CCCN(c2nc(-c3cc(Cl)cc(Cl)c3)no2)CC1`, the IC50 is > 99.5 µM. `O=c1[nH]ncn1C1CCN(Cc2c[nH]c3ccccc23)CC1` returned a half-maximal inhibitory concentration (IC50) of 34.1 µM. In the case of `Cc1cc(C)c([C@@H](NC(=O)OCc2ccccc2)C(=O)Nc2cccc(CN)c2)c(C)c1`, the IC50 was > 99.5 µM. With `CCn1c(=O)c(N2CC[C@H](N3CCCS3(=O)=O)C2)nc2ccccc21`, the IC50 was > 99.5 µM.

For `CCc1cc(COc2ccc(S(=O)(=O)Nc3ccc(Cl)cc3C(=O)O)cc2)no1`, the IC50 is > 99.5 µM. As to `CS(=O)(=O)NCc1ccc(CNC(=O)[C@@H](NC(=O)OCc2ccccc2)c2ccc(OCc3ccccc3)cc2)cc1`, the IC50 is > 99.5 µM. Take `O=Cc1ccc(F)c(C(=O)N2CCN(C3=NCCCN3)CC2)c1`: the IC50 is > 99.5 µM. In the case of `CCn1cnnc1COc1ccc(S(=O)(=O)Nc2ccc(Cl)cc2C(=O)O)cc1` it was > 99.5 µM; in that of `CC(C)n1cc(CNC(=O)[C@@H](NC(=O)OCc2ccccc2)c2ccc(OCc3ccccc3)cc2)cn1`, > 99.5 µM. For the molecule `Cc1ocnc1COc1ccc(S(=O)(=O)Nc2ccc(Cl)cc2C(=O)O)cc1`, the IC50 was > 99.5 µM. Take `O=C(Nc1cccnc1)c1cc(Cl)ccc1NS(=O)(=O)c1ccc(Oc2ccccc2Cl)cc1`: the IC50 was > 99.5 µM. Consider `O=C(O)c1cc(Cl)ccc1CNS(=O)(=O)c1ccc(Oc2ccccc2Cl)cc1`, for which the IC50 is > 99.5 µM. Consider `COc1cncc(CNC(=O)[C@@H](NC(=O)OCc2ccccc2)c2ccc(OCc3ccccc3)cc2)c1`, for which the IC50 is > 99.5 µM. With `O=C(N[C@@H](C(=O)Nc1ccncc1)c1ccc(OCc2ccccc2)cc1)OCc1ccccc1`, the IC50 was > 99.5 µM. Regarding `O=C(O)c1cc(Cl)ccc1NS(=O)(=O)c1ccc(OCc2ccccn2)cc1`, the IC50 was > 99.5 µM. In the case of `CC(C)(C)OC(=O)N1C[C@@H](O)[C@H](c2c[nH]c3ccccc23)C1` it was > 99.5 µM. In the case of `O=C(O)Cn1ccnc(N2CC[C@@H](CO)C2)c1=O` it was > 99.5 µM; in that of `NS(=O)(=O)c1ccc(N2CCC=C(c3cccc(O)c3)C2)c2ncccc12`, > 99.5 µM.

Regarding `CCn1c(=O)c(N2C[C@@H]3CCO[C@]3(COC)C2)nc2ccccc21`, the IC50 was > 99.5 µM. On to `CN(C)Cc1ccccc1CNC(=O)[C@@H](NC(=O)OCc1ccccc1)c1ccc(OCc2ccccc2)cc1`, for which the IC50 is > 99.5 µM. As for `CN(C)Cc1cncc(NC(=O)[C@@H](NC(=O)OCc2ccccc2)c2ccc(OCc3ccccc3)cc2)c1`, the IC50 was > 99.5 µM. Take `O=C(N[C@H](C(=O)NCc1ccc(F)cc1)c1ccc(OCc2ccccc2)cc1)OCc1ccccc1`: the IC50 was > 99.5 µM. Take `CN1CCN(Cc2ccccc2CNC(=O)[C@@H](NC(=O)OCc2ccccc2)c2ccc(OCc3ccccc3)cc2)CC1`: the IC50 was > 99.5 µM. On to `Cc1ccc2c(c1)CN(C(=O)c1ccc(C3(CN)CC3)cc1)C(C)(C)C2`, for which the IC50 was > 99.5 µM.

In the case of `CN(C)CCOc1cccc(CNC(=O)[C@@H](NC(=O)OCc2ccccc2)c2ccc(OCc3ccccc3)cc2)c1`, the IC50 was > 99.5 µM. As to `Cc1cnn(-c2cccc(-c3cccc(C4(CN)CC4)c3)c2)c1`, the IC50 was > 99.5 µM. In the case of `Cc1ncccc1-c1ccc([C@@H](NC(=O)OCc2ccccc2)C(=O)Nc2cccc(CN)c2)cc1` it was 98.1 µM; in that of `O=C(N[C@@H](C(=O)Nc1ccc2c(n1)CNC2)c1ccc(OCc2ccccc2)cc1)OCc1ccccc1`, > 99.5 µM. For the molecule `CCOCCNC(=O)c1cc(Cl)ccc1NS(=O)(=O)c1ccc(Oc2ccccc2Cl)cc1`, the IC50 is 90.4 µM and > 99.5 µM.

Regarding `CS(=O)(=O)c1cccc(CNC(=O)[C@@H](NC(=O)OCc2ccccc2)c2ccc(OCc3ccccc3)cc2)c1`, the IC50 was > 99.5 µM. As to `O=C(O)c1cc(Cl)ccc1NS(=O)(=O)c1ccc(OCc2cccnn2)cc1`, the IC50 is > 99.5 µM. The same measure for `Cc1cc(C=O)c(O)c(C(=O)N2CC[C@H](CN(C)C)C2)c1`: > 99.5 µM.

`C[C@@H](Oc1ccc(S(=O)(=O)Nc2ccc(Cl)cc2C(=O)O)cc1)c1ccccc1F` returned an IC50 of 25.1 µM. This lies in the double-digit micromolar range. With `CN1CCC(c2nc(C(F)(F)F)n3c2CN(c2cccc(C(N)=O)n2)CC3)CC1`, the IC50 was > 99.5 µM. For `CCn1c(=O)c(N2C[C@H]3COC(C)(C)OC[C@H]3C2)nc2ccccc21`, the IC50 was > 99.5 µM. For `CN1CCc2ncc(NC(=O)[C@@H](NC(=O)OCc3ccccc3)c3ccc(OCc4ccccc4)cc3)cc2C1`, the IC50 is > 99.5 µM.

On to `OCc1ccc(Cl)c(N2CCN(c3ccc4[nH]cnc4c3)CC2)n1`, for which the IC50 was > 99.5 µM.

Take `CCn1c(=O)c(N2C[C@@H]3[C@H](C2)[C@H]3C(=O)OC)nc2ccccc21`: the IC50 is > 99.5 µM. For the molecule `CC(C)c1cnc(COc2ccc(S(=O)(=O)Nc3ccc(Cl)cc3C(=O)O)cc2)o1`, the IC50 is > 99.5 µM. Consider `O=C(c1cc(Cl)ccc1NS(=O)(=O)c1ccc(Oc2ccccc2Cl)cc1)N1CCNCC1`, for which the IC50 is > 99.5 µM.

Take `O=C(N[C@@H](C(=O)NCc1ccc(CN2CCCC2)cc1)c1ccc(OCc2ccccc2)cc1)OCc1ccccc1`: the IC50 is > 99.5 µM. The same measure for `CN(C)Cc1ccc(CNC(=O)[C@@H](NC(=O)OCc2ccccc2)c2ccc(OCc3ccccc3)cc2)cc1`: > 99.5 µM; for `O=C(N[C@@H](C(=O)NCc1cccc(CN2CCCCC2)c1)c1ccc(OCc2ccccc2)cc1)OCc1ccccc1`: > 99.5 µM. Consider `NS(=O)(=O)c1cc(F)c(Cl)cc1N1CCN(c2ccnc(O)c2)CC1`, for which the IC50 is > 99.5 µM. For the molecule `CCn1c(=O)c(N2CC[C@@]23CCN(C)C3)nc2ccccc21`, the IC50 is > 99.5 µM. On to `NCc1ccccc1C1CCN(C(=O)[C@H]2CCN3CC[C@H]2C3)CC1`, for which the IC50 is > 99.5 µM. In the case of `CN(C)Cc1cc(CNC(=O)[C@@H](NC(=O)OCc2ccccc2)c2ccc(OCc3ccccc3)cc2)ccc1F`, the IC50 is > 99.5 µM. Regarding `O=C(O)c1ncc(F)cc1NS(=O)(=O)c1ccc(Oc2ccccc2Cl)cc1`, the IC50 is > 99.5 µM.

For `CN(C)C(=O)[C@@H](NC(=O)OCc1ccccc1)c1ccc(OCc2ccccc2)cc1`, the IC50 is > 99.5 µM. Take `C[C@@H]1c2cccnc2CCN1Cc1cccc(CN(C)C)c1`: the IC50 was > 99.5 µM. Take `NCc1cccc(NC(=O)[C@@H](NC(=O)OCc2ccccc2)c2ccc(OCc3ccncc3)cc2)c1`: half-maximal inhibition (IC50) required 90 µM.

Take `CN(C)[C@H]1CCc2cc(-c3cccc(N4CCNC4=O)c3)ccc2NC1`: the half-maximal inhibitory concentration (IC50) was > 99.5 µM.

As for `CCn1c(=O)c(N2C[C@H]3CCCN3C(=O)[C@H]2C)nc2ccccc21`, the IC50 is > 99.5 µM. In the case of `O=C(N[C@@H](C(=O)Nc1ccccn1)c1ccc(OCc2ccccc2)cc1)OCc1ccccc1` it was > 99.5 µM. Consider `CN1CCN(Cc2cccc(CNC(=O)[C@@H](NC(=O)OCc3ccccc3)c3ccc(OCc4ccccc4)cc3)c2)CC1`, for which the IC50 is > 99.5 µM. In the case of `NCc1cccc(NC(=O)[C@@H](NC(=O)OCc2ccccc2)c2ccc(-c3cccc4c3CCO4)cc2)c1` it was 14 µM.

Regarding `Cn1nc(C2CCN(C(=O)c3ccccc3CSc3nnc[nH]3)CC2)cc1O`, the IC50 was > 99.5 µM.

Turning to `NCc1cccc(NC(=O)[C@@H](NC(=O)OCc2ccccc2)c2ccc(-c3cccc(F)c3)cc2)c1`, the IC50 was 7.19 µM and 6.8 µM.

Source of the values: ChEMBL document CHEMBL5604062, “ASAP - ZIKV NS2B-NS3 protease fluorescence dose response” (2024).
